Assay results: patent publication US12458605B2, “Lipid nanoparticle” (National University Corporation Hokkaido University, priority 2020, dated 2025)
Values joined by “and” are separate entries in the source; they are usually repeats but may differ in a detail not shown here. Identical values can stand only once.

Legend:
[1] = siRNA/mRNA encapsulation rate by Ribogreen reagent (section IV); type: physicochemical; conditions: for % siRNA encapsulation: F7siRNA-loaded LNP, 50:10:38.5:1.5, N/P ratio 6; for % mRNA encapsulation: FlucmRNA-loaded LNP, 50:10:38.5:1.5
How it was run: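 LNPs diluted in TE buffer to 8 μg/mL nucleic acid for surface RNA, or to 1.2 μg/mL with 1% Triton X-100 for total RNA. RiboGreen fluorescence (ex 485/em 528 nm) quantified against a Triton-containing standard curve (0-2.5 μg/mL). Encapsulation % = (total − surface)/total × 100.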

[2] = Average particle size (ζ-Average) and PDI by dynamic light scattering (Zetasizer Nano ZSP); type: physicochemical
How it was run: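 Lipid nanoparticles dispersed in PBS(−) were sized by dynamic light scattering, giving the ζ-Average diameter and polydispersity index (PDI).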

[3] = test system: F7; assay: In vivo F7 knockdown, plasma F7 enzyme activity, ICR mice; conditions: i.v. 0.003-0.1 mg siRNA/kg, plasma at 24 hours, compared with LNP of CL4H6 or CL15H6 (FIG. 2)
Description: Then, each prepared F7siRNA-loaded lipid nanoparticles were administered to ICR mice (4 weeks old, female) and in vivo F7 knockdown activity was examined.
Specifically, each F7siRNA-loaded lipid nanoparticles were intravenously administered to ICR mice at 0.003-0.1 mg siRNA/kg, and plasma F7 enzyme activity at 24 hours later was measured. Relative plasma F7 enzyme activity (%) of mice administered each F7siRNA-loaded lipid nanoparticles was calculated using plasma F7 enzyme activity of untreated mice as 100%. FIG. 2(B) is the results of intravenous administration of each F7siRNA-loaded lipid nanoparticle at 0.1 mg siRNA/kg.

[4] = test system: F7; assay: In vivo F7 knockdown, plasma F7 enzyme activity (BIOPHEN FVII), Balb/c mice; conditions: i.v. 0.025 mg siRNA/kg, plasma at 24 hours; for F7 enzyme activity (%): untreated mice as 100%; for F7 enzyme activity (Ratio using MC3 as 1): relative plasma F7 activity of MC3 LNP as 1
How it was run: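 Female Balb/c mice, 5 weeks old, received F7 siRNA lipid nanoparticles i.v. at 0.025 mg siRNA/kg; plasma F7 activity measured chromogenically (BIOPHEN FVII) 24 h later. Values are % of untreated mice, also expressed as a ratio to MC3-containing nanoparticles set at 1.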

[5] = pKa of lipid nanoparticles by TNS (section II); type: physicochemical; conditions: F7siRNA-loaded LNP; compared with LNP of straight-chain CL4H6 or CL15H6 (FIG. 1)
Description: The pKa of lipid nanoparticles was measured using p-toluidino-2-naphthalenesulfonic acid (TNS). First, TNS (final concentration: 0.75 μM) and lipid nanoparticles (final concentration: […]) were mixed in buffer solution adjusted to each pH. The fluorescence intensity of the prepared mixture was measured with a microplate reader. The highest and lowest values among the measured values were taken as 100% and 0% charge rates respectively, and the pH indicating 50% charge rate was calculated as pKa.

[6] = Nucleic acid encapsulation rate by Ribogreen (section II); type: physicochemical; conditions: for % mRNA encapsulation: NlucmRNA-loaded LNP, 60:10:40:1; for % pDNA encapsulation: pFluc-loaded LNP
Description: The encapsulation rates of siRNA, mRNA, and pDNA of lipid nanoparticles were measured using Ribogreen (manufactured by life technologies).

[7] = Zeta potential in 10 mM HEPES buffer (pH 7.4); type: physicochemical
Description: (§1) The average particle size (number-average value) and PDI in PBS(−) and zeta potential in 10 mM HEPES buffer solution (pH 7.4) of lipid nanoparticles were measured using “Zetasizer Nano ZS ZEN3600”, an analyzer utilizing dynamic light scattering (manufactured by Malvern).

[8] = Storage stability of FlucmRNA-loaded LNP at −80, 5, 25 and 40° C.; type: physicochemical; conditions: for period for which quality remained good, −80° C.: maximum storage period 1 week
How it was run: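 FlucmRNA-loaded LNPs held at −80, 5, 25 or 40° C; at each time point size, PDI and encapsulation measured. Quality deemed maintained while size stays within ±20 nm of preparation day, PDI ≤0.2 and encapsulation ≥80%; value is the period meeting all three.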

[9] = Average particle size and PDI by dynamic light scattering (Zetasizer Nano ZS); type: physicochemical
Description: as §1

[10] = test system: spleen; assay: In vivo Fluc activity of FlucmRNA-loaded LNP by in vivo imaging, spleen; conditions: Balb/c mice, FlucmRNA-loaded LNP i.v. 0.1 mg mRNA/kg, 6 hours
How it was run: (§2)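 Female Balb/c mice, 7 weeks old, received LNP i.v. at 0.1 mg mRNA/kg. At 6 h, luciferin was given via tail vein at 1.5 mg per mouse, and liver and spleen luminescence was imaged as Avg Radiance [p/s/cm2/sr] near 560 nm.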

[11] = test system: liver; assay: In vivo Fluc activity of FlucmRNA-loaded LNP by in vivo imaging, liver; conditions: Balb/c mice, FlucmRNA-loaded LNP i.v. 0.1 mg mRNA/kg, 6 hours
How it was run: as §2

[12] = F7siRNA-loaded LNP, 50:10:38.5:1.5, N/P ratio 6
[13] = FlucmRNA-loaded LNP, lipid:DSPC:cholesterol:DMG-PEG2K 50:10:38.5:1.5
[14] = NlucmRNA-loaded LNP, 60:10:40:1
[15] = NlucmRNA-loaded LNP, lipid:DSPC:cholesterol:PEG-DMG 60:10:40:1
[16] = pFluc-loaded LNP, 50:10:40:1.5, N/P ratio 6
[17] = pFluc-loaded LNP, 50:10:40:1.5, N/P ratio 9
[18] = FlucmRNA-loaded LNP, 50:10:38.5:1.5

SMILES | % siRNA encapsulation [1] [%] | % mRNA encapsulation [1] | PDI [2, 12] | ζ-Average (nm) [2, 12] [nm] | ζ-Average (nm) [2, 13] | % mRNA encapsulation [6] [%] | % pDNA encapsulation ([6]; N/P ratio 6) [%] | % pDNA encapsulation ([6]; N/P ratio 9) | ζ-potential (mV) [7, 14] [mV] | ζ-potential (mV) ([7]; pFluc-loaded LNP, N/P ratio 6) | ζ-potential (mV) ([7]; pFluc-loaded LNP, N/P ratio 9) | PdI [9, 14] | ζ-Average (nm) [9, 15] [nm] | ζ-Average (nm) [9, 16] [nm] | ζ-Average (nm) [9, 17] [nm] | PdI ([9]; pFluc-loaded LNP, N/P ratio 6) | PdI ([9]; pFluc-loaded LNP, N/P ratio 9) | PDI [2, 18] | Fluc Activity in spleen [10] | Fluc Activity in liver [11] | also measured
CCCCCCCCC(CCCCCC)C(=O)OCCCCCCC(O)(CCCCCCOC(=O)C(CCCCCC)CCCCCCCC)CCCCN(CCC)CCC (centres unmarked) [CL4F6, 7-(4-(dipropylamino)butyl)-7-hydroxytridecane-1,13-diyl bis(2-hexyldecanoate)] | 99.9 | 99.6% and 99.4% | 0.014 | 92.27 | 82.66 nm and 88.07 nm | 90 | 97.1 | 94.8 ± 3.3% | −3.72 | −5.17 | −1.7 ± 0.5 | 0.157 | 127.2 | 79.91 | 91.3 ± 11.2 | 0.08 | 0.19 ± 0.03 | – | – | – | in vivo F7 knockdown activity, compared [3]: equivalent in vivo F7 knockdown activity; F7 enzyme activity (%) [4]: 6.8%; pKa of lipid nanoparticle, compared [5]: lower pKa; period for which quality remained good, −80° C. [8]: 1 week; period for which quality remained good, 5° C. ([8]; maximum storage period 5 weeks): 5 weeks; period for which quality remained good, 25° C. ([8]; maximum storage period 5 weeks): 5 weeks; period for which quality remained good, 40° C. (weeks) ([8]; maximum storage period 5 weeks): 5 weeks
CCCCCCCC/C=C\CCCCCCCC(=O)OCCCCCCC(O)(CCCCCCOC(=O)CCCCCCC/C=C\CCCCCCCC)CCCCN(CCC)CCC [CL4H6, 7-(4-(dipropylamino)butyl)-7-hydroxytridecane-1,13-diyl dioleate, reference compound] | 96.1 | 80.1% | 0.102 | 68.86 | 71.28 nm | 77.6 | 41.5 | 70 ± 5.2% | −1.23 | −0.57 | −0.4 ± 0.4 | 0.139 | 113.4 | 105.6 | 113.9 ± 4.2 | 0.14 | 0.2 ± 0.03 | 0.072 | 2.10E+06 Avg Radiance [p/s/cm2/sr] | 1.06E+07 Avg Radiance [p/s/cm2/sr] | F7 enzyme activity (%) [4]: 47.2%; period for which quality remained good, −80° C. [8]: 0 week; period for which quality remained good, 5° C. ([8]; maximum storage period 5 weeks): 0 week weeks; period for which quality remained good, 25° C. ([8]; maximum storage period 5 weeks): 1 week weeks; period for which quality remained good, 40° C. (days) ([8]; maximum storage period 5 weeks): 0 day days
CCCCCCCCCCCCCCC(C)C(=O)OCCCCCCC(O)(CCCCCCOC(=O)C(C)CCCCCCCCCCCCCC)CCCCOC(=O)C1CCN(C)CC1 (centres unmarked) [CL15F 16-1] | 99.0 | 94.0% | 0.088 | 122.5 | 187.70 nm | – | – | – | – | – | – | – | – | – | – | – | – | 0.182 | 1.27E+06 Avg Radiance [p/s/cm2/sr] | 2.18E+05 Avg Radiance [p/s/cm2/sr] | F7 enzyme activity (Ratio using MC3 as 1) [4]: 1.37; period for which quality remained good, −80° C. [8]: 0 week; period for which quality remained good, 5° C. ([8]; maximum storage period 5 weeks): 0 weeks; period for which quality remained good, 25° C. ([8]; maximum storage period 5 weeks): 0 weeks; period for which quality remained good, 40° C. (weeks) ([8]; maximum storage period 5 weeks): 0 weeks
CC(CCC(C(=O)OCCCCCCC(O)(CCCCCCOC(=O)C(CCC(C)CC(C)(C)C)C(C)CC(C)(C)C)CCCCOC(=O)C1CCN(C)CC1)C(C)CC(C)(C)C)CC(C)(C)C (centres unmarked) [CL15G6] | 100.7 | 100.24% | 0.021 | 97.73 | 102.40 nm | 91.8 | 94.7 | 91.1 ± 2.1% | 0.419 | −5.84 | −1.9 ± 0.6 | 0.201 | 71.65 | 86.39 | 100.9 ± 10.7 | 0.03 | 0.12 ± 0.08 | 0.012 | 2.77E+06 Avg Radiance [p/s/cm2/sr] | 6.52E+06 Avg Radiance [p/s/cm2/sr] | in vivo F7 knockdown activity, compared [3]: equivalent in vivo F7 knockdown activity; F7 enzyme activity (Ratio using MC3 as 1) [4]: 2.69; pKa of lipid nanoparticle, compared [5]: lower pKa
CCCCCCCC/C=C\CCCCCCCC(=O)OCCCCCCC(O)(CCCCCCOC(=O)CCCCCCC/C=C\CCCCCCCC)CCCCOC(=O)C1CCN(C)CC1 [CL15H6, 7-hydroxy-7-(4-((1-methylpiperidine-4-carbonyl)oxy)butyl)tridecane-1,13-diyl dioleate, reference compound] | 100.2 | 83.8% | 0.142 | 123.50 | 180.90 nm | 90.5 | 72.4 | 81.9 ± 3^ % | 0.123 | 0.367 | 0.9 ± 0.9 | 0.495 | 94.34 | 121.7 | 149.9 ± 9.8 | 0.08 | 0.11 ± 0.01 | 0.238 | 6.17E+05 Avg Radiance [p/s/cm2/sr] | 1.17E+05 Avg Radiance [p/s/cm2/sr] | F7 enzyme activity (Ratio using MC3 as 1) [4]: 1.99; quality at production (storage stability criteria) ([8]; criteria: PDI 0.2 or less, encapsulation 80% or more): Does not meet the criteria for “good” at production
